Measured values reported in patent EP1121937A1, “VACCINE PR[…]” (THE KITASATO INSTITUTE, priority 1998, dated 2000).
Entries after “also recorded” stand apart in the source; their conditions may differ.

Tests used:
sheep erythrocytes = assay: Hemolytic test for active saponins (Example 6); type: cell-based; details: 30 minutes at room temperature, solutions 3.125 to 200 µg/ml in PBS, E and F judged at a final concentration of 200 µg/ml
Method: It has been known that saponins generally have the hemolytic activity. Thus, the inventive active saponins were tested for the hemolytic activity as follows. The sheep erythrocytes were washed 3 times with phosphate buffered saline (PBS), and then diluted 2.5 times with the same buffer for the subsequent experiment. Aliquots (100 µl ) of solutions of onjisaponins A, E, F, and G (200, 100, 50, 25, 6.25, 3.125 µg/ml-PBS solution) were added to V-shaped wells of a 96-well micro-plate, and 25 µl of sheep erythrocyte suspension was added to each well. The plate was allowed to stand still at room temperature for 30 minutes. Then, the samples were centrifuged at 1000 rpm for 5 minutes. An aliquot (50 µl) of the resulting supernatant was transferred to a flat-bottomed well of a plate and the absorbance thereof was measured at 490 nm in a micro-plate reader (Model 450, BioRad Co.). The hemolytic activity of test compound was evaluated based on the increase in absorbance at 490 nm, which results from the release of hemoglobin from sheep erythrocytes.

[1] = test system: influenza HA vaccine (A/PR/8/34 strain); design: species or system BALB/c mice; details: mouse, in vivo
[2] = test system: pertussis-diphtheria-tetanus combined vaccine; design: species or system BALB/c mice; details: mouse, in vivo
[3] = test system: pertussis-diphtheria-tetanus combined vaccine; design: species or system BALB/c mice; details: mouse, in vivo; remark: listed apart in the source
[4] = background art; cited from earlier work
cellular immunity = details: background art; cited from earlier work
[5] = test system: influenza HA vaccine (A/Beijing/262/95 strain); type: in vivo, BALB/c mice
[6] = test system: influenza HA vaccine (A/Beijing/262/95 strain); design: species or system BALB/c mice; details: mouse, in vivo

Substance | hemolytic activity (release of hemoglobin, absorbance at 490 nm) (sheep erythrocytes) | anti-HA-IgA antibody titer in the nasal irrigation liquid [1] | anti-HA-IgG antibody titer in the nasal irrigation liquid [1] | titer of anti-DT-IgA antibody in the nasal irrigation liquid [2] | titer of anti-PT-IgA antibody in the nasal irrigation liquid [2] | titer of anti-TT-IgA antibody in the nasal irrigation liquid [2] | titers of anti-PT-IgA, anti-DT-IgA and anti-TT-IgA antibodies in the nasal irrigation liquid compared with the group given vaccine and CTB [2] | titer of anti-DT-IgG antibody in the serum [3] | titer of anti-PT-IgG antibody in the serum [3] | titer of anti-TT-IgG antibody in the serum [3] | titers of anti-PT-IgG, anti-DT-IgG and anti-TT-IgG antibodies in the serum compared with the group given vaccine and CTB [3] | anti-HA-IgA and IgG antibody titers in the nasal irrigation liquid compared with the group given vaccine in combination with CTB [1] | solubility [4] | induction of cellular immunity (cellular immunity) | adjuvant activity of enhancing the titer of anti-HA-IgA antibody compared with the same amount of CTB ([5]; mouse, in vivo) | anti-HA-IgA antibody titer in the nasal irrigation liquid ([5]; secondary response, […]) | anti-HA-IgG antibody titer in the nasal irrigation liquid ([5]; secondary response, […]) | HI antibody titer in the serum compared with HA vaccine alone [6] | adjuvant activity (serum HI antibody titer) compared with the same amount of CTB [6]
onjisaponin E | substantially no hemolytic activity; also recorded: low hemolytic activity; also recorded: hardly recognized | increased only the production of anti-HA-IgA to a statistically significant level | increased only the production of anti-HA-IgA |  |  |  |  |  |  |  |  |  |  |  |  |  |  |  | 
onjisaponin A | not acceptable; also recorded: hemolysis clearly occurred | increased to the highest level | increased to the highest level | increased to highest levels | increased to highest levels | increased to highest levels | comparable | increased to highest levels | increased to highest levels | increased to highest levels | comparable | comparable |  |  |  |  |  |  | 
QS-21 |  |  |  |  |  |  |  |  |  |  |  |  | too low | strongly induces the cellular immunity |  |  |  |  | 
onjisaponin G | low hemolytic activity; also recorded: moderate degree of hemolysis | increased only the production of anti-HA-IgA to a statistically significant level | increased only the production of anti-HA-IgA | also elevated |  | also elevated |  | increased only anti-TT-IgG antibody titer | increased only anti-TT-IgG antibody titer | increased only anti-TT-IgG antibody titer to a statistically significant level |  |  |  |  |  |  |  |  | 
onjisaponin F | substantially no hemolytic activity; also recorded: low hemolytic activity; also recorded: hardly recognized | increased the production | increased the production | increased to highest levels | increased to highest levels | increased to highest levels | comparable | also elevated | also elevated | also elevated |  |  |  |  | lower | significantly increased | significantly increased | significantly increased | slightly weaker
